From patent US20260055113A1, “HETEROARYL COMPOUNDS FOR THE TREATMENT OF CANCER” (Hoffmann-La Roche Inc., priority 2022, published 2026)
pEC50, pIC50: −log10 of the molar value.

Experiments:
[1] = Human microsomal stability assay; format: in vitro ADME; settings: human liver microsomes 0.5 mg/mL, 1 μM test compound, 37° C., pH 7.4
Description: Human liver microsomes (Cat. NO.: 452117, Corning, USA) were preincubated with test compound for 10 minutes at 37° C. in 100 mM potassium phosphate buffer, pH 7.4. The reactions were initiated by adding NADPH regenerating system. The final incubation mixtures contained 1 μM test compound, 0.5 mg/mL liver microsomal protein, 1 mM MgCl2, 1 mM NADP, 1 unit/mL isocitric dehydrogenase and 6 mM isocitric acid in 100 mM potassium phosphate buffer, pH 7.4. After incubation times of 0, 3, 6, 9, 15 and 30 minutes at 37° C., 300 μL of cold ACN (including internal standard) was added to 100 μL incubation mixture to terminate the reaction. Following precipitation and centrifugation, 100 μL supernatant will be taken out and added 300 μL water. The amount of compound remaining in the samples was determined by LC-MS/MS. Controls of no NADPH regenerating system at zero and 30 minutes were also prepared and analyzed. The results were categorized as: low (<7.0 mL/min/kg), medium (7.0-16.2 mL/min/kg) and high (16.2-23.2 mL/min/kg).

CD73 [2] = biological target: T1, CD73 (Homo sapiens (Human), UniProt P21589); test: CD73 cellular assay (MDA-MB-231 cells, malachite readout); format: cell-based; settings: AMP substrate, 45 min, read-out: Cellular IC50 against CD73
Description: After incubating with compounds for 30 minutes, 40 μL of AMP working solution (200 μM AMP in assay buffer) was added into each well in the assay plate. The assay plate was then incubated in a 5% CO2 incubator (Thermo Fisher Scientific) at 37° C. for 45 min. After the reaction was completed, 50 μL of the supernatants was collected and transferred into a new 384 well plate. 10 μL of Malachite A was added to each well in the assay plate and incubated for 10 minutes. 10 μL of Malachite B was then added to each corresponding well of the plate and incubated for 30 minutes.
Target sequence in this assay (P21589 27-574): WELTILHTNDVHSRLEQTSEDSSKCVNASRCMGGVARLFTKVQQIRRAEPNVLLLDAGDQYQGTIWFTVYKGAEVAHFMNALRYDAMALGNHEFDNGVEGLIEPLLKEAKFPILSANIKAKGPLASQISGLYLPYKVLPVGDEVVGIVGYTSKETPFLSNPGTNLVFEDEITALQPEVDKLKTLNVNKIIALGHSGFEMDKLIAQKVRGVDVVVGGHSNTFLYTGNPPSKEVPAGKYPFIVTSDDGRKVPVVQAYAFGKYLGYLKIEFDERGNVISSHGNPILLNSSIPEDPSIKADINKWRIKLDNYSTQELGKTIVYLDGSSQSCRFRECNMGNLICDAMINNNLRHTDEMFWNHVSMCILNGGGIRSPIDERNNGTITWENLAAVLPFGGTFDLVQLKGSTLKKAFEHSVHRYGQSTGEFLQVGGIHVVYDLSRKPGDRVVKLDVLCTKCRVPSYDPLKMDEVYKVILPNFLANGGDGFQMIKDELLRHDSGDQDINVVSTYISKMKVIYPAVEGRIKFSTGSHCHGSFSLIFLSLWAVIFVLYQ

CD73 [3] = biological target: T1, CD73; test: CD73 potency assay using LC/MS (enzymatic); format: biochemical; settings: 0.05 nM recombinant CD73 protein, LC/MS adenosine readout; read-out: Enzymatic IC50 against CD73
Description: The purpose of this assay is to identify and characterize inhibitors of CD73 enzymatic activity. […] 10 μL of enzyme working solution (containing 0.05 nM recombinant CD73 protein, 10 mM Tris pH 7.5, 100 mM NaCl, 0.01% BSA, 0.2 mM Octyl glucoside) was added to the assay plate and incubated with compounds for 15 minutes at room temperature. After adding 15 μL of AMP working solution (Containing 10 mM Tris pH 7.5, 100 mM NaCl, 0.01% BSA, 0.2 mM Octyl glucoside, with 1000 μM of AMP final concentration) and incubate for 10 min at room temperature. […] After centrifugation, 75 μL of the mixture was transferred to a new 384-well plate for LC/MS analysis.
Samples from the 384-well plates, were loaded onto an autosampler deck, then injected with ADDA-LC-MS/MS. The aqueous mobile phase is 0.1% formic acid in water. The organic mobile phase is 0.1% formic acid in acetonitrile. Flow rate is maintained at 0.8 mL/minute using Shimadzu pumps. The column is ACE 5 Phenyl, 50×2.1 mm. The analysis was performed on a SCIEX triple quadrupole mass spectrometer operating in positive ion mode. The effluent from the HPLC column was directly introduced into the electrospray ionization (ESI). Multiple reaction monitoring (MRM) is used to determine analyte and internal standard (IS) responses. […] The data is calculated using the peak area ratio (PAR) semi-quantitative method.
Target sequence in this assay (P21589 27-574, species assumed): as the sequence (P21589 27-574) above

CD8+ T cells = test: T cell proliferation assay, CD8+ T cells; settings: read-out: CD8+ T cell proliferation EC50; rescue of proliferation under high AMP condition (200 μM AMP), 72 hours
Description: (§1) The purpose of this assay is to characterize the potency of inhibitors of CD73 in rescuing adenosine-mediated inhibition of T cell proliferation. CD4+ or CD8+ T cells were isolated from peripheral blood mononuclear cells (PBMCs, HemaCare) by immunomagnetic negative selection using EasySep™ Isolation Kit ([sequence] Technologies) following the supplier's protocol. CD4+ or CD8+ T cells were pelleted by centrifugation at 300 gravitational force (g) for 5 minutes at room temperature and re-suspended in PBS. CellTrace™ Violet staining solution (Invitrogen) was added at 1:5,000 and incubated at 37° C. for 20 minutes, protected from light. […] Cells were then pelleted by centrifugation at 300 g for 5 minutes at room temperature and re-suspended in fresh, pre-warmed complete culture medium. 50 μL of cells were seeded per well in 96 well u-bottom plates. 50 μL of CD3/CD28 beads-containing medium and 50 μL of media containing compounds were added into cells. 50 μL of media containing AMP and EHNA hydrochloride (Sigma-Aldrich) was added into cells at 200 μM and 5 μM final concentration, respectively. Cells were incubated for 72 hours at 37° C. in a 5% CO2 incubator. 200 μL of PBS was then added to each well and cells were centrifuged at 300 g, 4° C. for 10 minutes. […] The supernatant was discarded and cells were re-suspended in 60 μL of cell staining buffer and analyzed on a flow cytometer.

CD4+ T cells = test: T cell proliferation assay, CD4+ T cells; settings: read-out: CD4+ T cell proliferation EC50; rescue of proliferation under high AMP condition (200 μM AMP), 72 hours
Description: as §1

| Compound | CL (h) [1] | pIC50 (CD73 [2]) | pIC50 (CD73 [3]) | pEC50 (CD8+ T cells) | pEC50 (CD4+ T cells) |
| --- | --- | --- | --- | --- | --- |
| Cn1nc(C2CC2)c2cc(-c3c[nH]c(=O)[nH]c3=O)nnc21 [Example 2, 5-(3-cyclopropyl-1-methyl-pyrazolo[3,4-c]pyridazin-5-yl)-1H-pyrimidine-2,4-dione] | 8.52 mL/min/kg | 7.99 | 9.05 |  |  |
| Cn1nc(-c2ccnn2Cc2ccccc2)c2cc(-c3c[nH]c(=O)[nH]c3=O)nnc21 [Example 7, 5-[3-(2-benzylpyrazol-3-yl)-1-methyl-pyrazolo[3,4-c]pyridazin-5-yl]-1H-pyrimidine-2,4-dione] | 9.85 mL/min/kg | 7.94 | 8.71 |  |  |
| CC(C)Oc1nn(C)c2nnc(-c3c[nH]c(=O)[nH]c3=O)cc12 [Example 8, 5-(3-isopropoxy-1-methyl-pyrazolo[3,4-c]pyridazin-5-yl)-1H-pyrimidine-2,4-dione] |  | 7.88 | 8.41 |  |  |
| CC(Oc1nn(C)c2nnc(-c3c[nH]c(=O)[nH]c3=O)cc12)c1cccc(C(F)(F)F)c1 (stereo not drawn) [Example 20, 5-[1-methyl-3-[1-[3-(trifluoromethyl)phenyl]ethoxy]pyrazolo[3,4-c]pyridazin-5-yl]-1H-pyrimidine-2,4-dione] | 6.36 mL/min/kg | 8.16 |  |  |  |
| Cc1nc(C(C)Oc2nn(C)c3nnc(-c4c[nH]c(=O)[nH]c4=O)cc23)cs1 (stereo not drawn) [Example 21, 5-[1-methyl-3-[1-(2-methylthiazol-4-yl)ethoxy]pyrazolo[3,4-c]pyridazin-5-yl]-1H-pyrimidine-2,4-dione] | 6.32 mL/min/kg | 8.34 | 9.19 |  |  |
| Cc1cnc(C(C)Oc2nn(C)c3nnc(-c4c[nH]c(=O)[nH]c4=O)cc23)s1 (stereo not drawn) [Example 22, 5-[1-methyl-3-[1-(5-methylthiazol-2-yl)ethoxy]pyrazolo[3,4-c]pyridazin-5-yl]-1H-pyrimidine-2,4-dione] | 8.14 mL/min/kg | 8.41 |  |  |  |
| CC(Oc1nn(C)c2nnc(-c3c[nH]c(=O)[nH]c3=O)cc12)c1ccnn1C (stereo not drawn) [Example 24, 5-[1-methyl-3-[1-(2-methylpyrazol-3-yl)ethoxy]pyrazolo[3,4-c]pyridazin-5-yl]-1H-pyrimidine-2,4-dione] | 6.26 mL/min/kg | 7.71 |  |  |  |
| CC(Oc1nn(C)c2nnc(-c3c[nH]c(=O)[nH]c3=O)cc12)c1nc2ccccc2o1 (stereo not drawn) [Example 25, 5-[3-[1-(1,3-benzoxazol-2-yl)ethoxy]-1-methyl-pyrazolo[3,4-c]pyridazin-5-yl]-1H-pyrimidine-2,4-dione] | 8.85 mL/min/kg | 8.10 |  |  |  |
| C[C@H](Oc1nn(C)c2nnc(-c3c[nH]c(=O)[nH]c3=O)cc12)c1ccccn1 [Example 26, 5-[1-methyl-3-[(1S)-1-(2-pyridyl)ethoxy]pyrazolo[3,4-c]pyridazin-5-yl]-1H-pyrimidine-2,4-dione] | 6.15 mL/min/kg | 8.57 | 9.48 | 8.41 | 8.25 |
| C[C@H](Oc1nn(C)c2nnc(-c3c[nH]c(=O)[nH]c3=O)cc12)c1ccccc1 [Example 27, 5-[1-methyl-3-[(1S)-1-phenylethoxy]pyrazolo[3,4-c]pyridazin-5-yl]-1H-pyrimidine-2,4-dione] | 6.15 mL/min/kg |  |  | 8.42 | 8.37 |
| Cn1nc(O[C@H](c2ccccn2)C(F)(F)F)c2cc(-c3c[nH]c(=O)[nH]c3=O)nnc21 [Example 29A, 5-[1-methyl-3-[(1R)-2,2,2-trifluoro-1-(2-pyridyl)ethoxy]pyrazolo[3,4-c]pyridazin-5-yl]-1H-pyrimidine-2,4-dione] | 6.15 mL/min/kg | 8.47 | 9.42 |  |  |
| Cn1nc(O[C@H](c2ccccc2)C(F)(F)F)c2cc(-c3c[nH]c(=O)[nH]c3=O)nnc21 [Example 30A, 5-[1-methyl-3-[(1R)-2,2,2-trifluoro-1-phenyl-ethoxy]pyrazolo[3,4-c]pyridazin-5-yl]-1H-pyrimidine-2,4-dione] | 6.15 mL/min/kg | 8.80 | 9.82 |  |  |
| CN(c1nn(C)c2nnc(-c3c[nH]c(=O)[nH]c3=O)cc12)C1CCCC1 [Example 36, 5-[3-[cyclopentyl(methyl)amino]-1-methyl-pyrazolo[3,4-c]pyridazin-5-yl]-1H-pyrimidine-2,4-dione] | 6.15 mL/min/kg | 8.07 | 8.65 |  |  |
| C[C@H](Nc1nn(C)c2nnc(-c3c[nH]c(=O)[nH]c3=O)cc12)c1ccccc1 [Example 37, 5-[1-methyl-3-[[(1S)-1-phenylethyl]amino]pyrazolo[3,4-c]pyridazin-5-yl]-1H-pyrimidine-2,4-dione] | 6.15 mL/min/kg | 8.40 |  |  |  |
| C[C@@H](c1ccccc1)N(C)c1nn(C)c2nnc(-c3c[nH]c(=O)[nH]c3=O)cc12 [Example 38, 5-[1-methyl-3-[methyl-[(1S)-1-phenylethyl]amino]pyrazolo[3,4-c]pyridazin-5-yl]-1H-pyrimidine-2,4-dione] | 9.3 mL/min/kg | 8.80 | 9.60 |  |  |
| Cn1nc(C2CCC2)c2cc(-c3c[nH]c(=O)[nH]c3=O)nnc21 [Example 39, 5-(3-cyclobutyl-1-methyl-pyrazolo[3,4-c]pyridazin-5-yl)-1H-pyrimidine-2,4-dione] | 6.15 mL/min/kg | 8.46 | 9.15 |  |  |
| Cc1ccnc([C@H](C)Oc2nn(C)c3nnc(-c4c[nH]c(=O)[nH]c4=O)cc23)c1 [Example 42, 5-[1-methyl-3-[(1S)-1-(4-methyl-2-pyridyl)ethoxy]pyrazolo[3,4-c]pyridazin-5-yl]-1H-pyrimidine-2,4-dione] | 7.78 mL/min/kg | 8.39 |  |  |  |
| C[C@H](Oc1nn(C)c2nnc(-c3c[nH]c(=O)[nH]c3=O)cc12)c1ccc(F)cn1 [Example 43, 5-[3-[(1S)-1-(5-fluoro-2-pyridyl)ethoxy]-1-methyl-pyrazolo[3,4-c]pyridazin-5-yl]-1H-pyrimidine-2,4-dione] | 6.15 mL/min/kg | 8.43 |  |  |  |
| C[C@H](Oc1nn(C)c2nnc(-c3c[nH]c(=O)[nH]c3=O)cc12)c1cccc(Cl)n1 [Example 44, 5-[3-[(1S)-1-(6-chloro-2-pyridyl)ethoxy]-1-methyl-pyrazolo[3,4-c]pyridazin-5-yl]-1H-pyrimidine-2,4-dione] | 6.15 mL/min/kg | 8.64 |  |  |  |
| C[C@H](Oc1nn(C)c2nnc(-c3c[nH]c(=O)[nH]c3=O)cc12)c1ccc(Cl)nn1 [Example 45, 5-[3-[(1S)-1-(6-chloropyridazin-3-yl)ethoxy]-1-methyl-pyrazolo[3,4-c]pyridazin-5-yl]-1H-pyrimidine-2,4-dione] | 6.15 mL/min/kg | 8.00 |  |  |  |
| O=c1[nH]cc(-c2cc3c(C4CCC4)noc3nn2)c(=O)[nH]1 [Example 46, 5-(3-cyclobutylisoxazolo[5,4-c]pyridazin-5-yl)-1H-pyrimidine-2,4-dione] |  | 7.98 | 8.70 |  |  |
